Key:
Assay type in all cases: in vivo
[1] = tested on: sedge, umbrella (small-flower umbrella sedge, Cyperus difformis); test: Test B flooded paddy test, visual plant response rating 0-100; settings: 250 g ai/ha, Flood, applied to paddy water, evaluated after 13 days
How it was run: (§1)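 Each species was raised to two leaves before flooding to a 3 cm depth and dosing the water with compound. Injury was assessed by eye after 13 days under greenhouse conditions.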

[2] = tested on: rice (Oryza sativa); test: as above; settings: 250 g ai/ha, Flood, applied to paddy water, evaluated after 13 days
How it was run: as §1

[3] = tested on: barnyardgrass (Echinochloa crusgalli); test: as above; settings: 250 g ai/ha, Flood, applied to paddy water, evaluated after 13 days
How it was run: as §1

[4] = tested on: ducksalad (Heteranthera limosa); test: as above; settings: 250 g ai/ha, Flood, applied to paddy water, evaluated after 13 days
How it was run: as §1

[5] = tested on: green foxtail (Setaria viridis); test: Test A preemergence soil spray, visual injury rating 0-100; settings: 10 days
How it was run: (§2)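 Directed preemergence spray onto seeded soil or postemergence spray onto 2-10 cm plants (loam plus sand); compound carried in surfactant-containing non-phytotoxic solvent. Injury rated by eye after 10 d greenhouse growth; 0 = no effect, 100 = complete control.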

[6] = tested on: oat, wild (wild oat, Avena fatua); test: as above; settings: 10 days
How it was run: as §2

[7] = tested on: kochia (Bassia scoparia); test: as above; settings: 10 days
How it was run: as §2

[8] = tested on: ragweed (common ragweed, Ambrosia artemisiifolia); test: as above; settings: 10 days
How it was run: as §2

[9] = tested on: corn (Zea mays); test: as above; settings: 10 days
How it was run: as §2

[10] = tested on: palmer (palmer amaranth, palmer pigweed, Amaranthus palmeri); test: as above; settings: 10 days
How it was run: as §2

[11] = tested on: wheat (Triticum aestivum); test: as above; settings: 10 days
How it was run: as §2

[12] = tested on: ryegrass, Italian (italian ryegrass, Lolium multiflorum); test: as above; settings: 10 days
How it was run: as §2

[13] = tested on: soybean (Glycine max); test: as above; settings: 10 days
How it was run: as §2

[14] = tested on: blackgrass (Alopecurus myosuroides); test: as above; settings: 10 days
How it was run: as §2

[15] = tested on: barnyardgrass (Echinochloa crus-galli); test: as above; settings: 10 days
How it was run: as §2

[16] = tested on: green foxtail (Setaria viridis); test: Test A postemergence application, visual injury rating 0-100
How it was run: as §2

[17] = tested on: oat, wild (wild oat, Avena fatua); test: as above
How it was run: as §2

[18] = tested on: kochia (Bassia scoparia); test: as above
How it was run: as §2

[19] = tested on: ragweed (common ragweed, Ambrosia artemisiifolia); test: as above
How it was run: as §2

[20] = tested on: galium (catchweed bedstraw, Galium aparine); test: as above
How it was run: as §2

[21] = tested on: corn (Zea mays); test: as above
How it was run: as §2

[22] = tested on: palmer (palmer amaranth, palmer pigweed, Amaranthus palmeri); test: as above
How it was run: as §2

[23] = tested on: wheat (Triticum aestivum); test: as above
How it was run: as §2

[24] = tested on: ryegrass, Italian (italian ryegrass, Lolium multiflorum); test: as above
How it was run: as §2

[25] = tested on: soybean (Glycine max); test: as above
How it was run: as §2

[26] = tested on: blackgrass (Alopecurus myosuroides); test: as above
How it was run: as §2

[27] = tested on: barnyardgrass (Echinochloa crus-galli); test: as above
How it was run: as §2

[28] = tested on: horseweed (Erigeron canadensis); test: as above
How it was run: as §2

[29] = 62 g ai/ha, 0 = no effect, 100 = complete control
[30] = 62 g ai/ha, postemergence, 10 days, 0 = no effect, 100 = complete control
[31] = Postemergence, 16 g ai/ha, greenhouse 10 days, 0 no effect, 100 complete control

CC(C)OC(=O)C1=CCC(NC(=O)C2(C)CN(c3cc(F)cc(F)c3)C(=O)O2)C1 (stereo not shown) [Compound 100]
Plant response rating, Sedge, Umbrella (0 to 100 scale, 0 is no effect and 100 is complete control) [1]: 95 | Plant response rating, Rice (0 to 100 scale, 0 is no effect and 100 is complete control) [2]: 70 | Plant response rating, Barnyardgrass (0 to 100 scale, 0 is no effect and 100 is complete control) [3]: 70 | Plant response rating, Ducksalad (0 to 100 scale, 0 is no effect and 100 is complete control) [4]: 75 | Foxtail, Green plant response rating ([5]; 16 g ai/ha, 0 to 100 scale): 80 | Foxtail, Green plant response rating (0-100) [5, 29]: 100 | Oat, Wild plant response rating ([6]; 16 g ai/ha, 0 to 100 scale): 0 | Oat, Wild plant response rating (0-100) [6, 29]: 0 | Kochia plant response rating ([7]; 16 g ai/ha, 0 to 100 scale): 0 | Kochia plant response rating (0-100) [7, 29]: 100 | Ragweed plant response rating ([8]; 16 g ai/ha, 0 to 100 scale): 0 | Ragweed plant response rating (0-100) [8, 29]: 0 | Corn plant response rating ([9]; 16 g ai/ha, 0 to 100 scale): 30 | Corn plant response rating (0-100) [9, 29]: 30 | Pigweed, Palmer plant response rating ([10]; 16 g ai/ha, 0 to 100 scale): 90 | Pigweed, Palmer plant response rating (0-100) [10, 29]: 100 | Wheat plant response rating ([11]; 16 g ai/ha, 0 to 100 scale): 50 | Wheat plant response rating (0-100) [11, 29]: 90 | Ryegrass, Italian plant response rating ([12]; 16 g ai/ha, 0 to 100 scale): 60 | Ryegrass, Italian plant response rating (0-100) [12, 29]: 80 | Soybean plant response rating ([13]; 16 g ai/ha, 0 to 100 scale): 0 | Soybean plant response rating (0-100) [13, 29]: 40 | Blackgrass plant response rating ([14]; 16 g ai/ha, 0 to 100 scale): 0 | Blackgrass plant response rating (0-100) [14, 29]: 60 | Barnyardgrass plant response rating ([15]; 16 g ai/ha, 0 to 100 scale): 30 | Barnyardgrass plant response rating (0-100) [15, 29]: 100 | Foxtail, Green plant response rating (0-100) [16, 30]: 90 | Foxtail, Green plant response rating (0 to 100 scale) [16, 31]: 80 | Oat, Wild plant response rating (0-100) [17, 30]: 100 | Oat, Wild plant response rating (0 to 100 scale) [17, 31]: 70 | Kochia plant response rating (0-100) [18, 30]: 90 | Kochia plant response rating (0 to 100 scale) [18, 31]: 80 | Ragweed plant response rating (0-100) [19, 30]: 40 | Ragweed plant response rating (0 to 100 scale) [19, 31]: 0 | Galium plant response rating (0-100) [20, 30]: 90 | Galium plant response rating (0 to 100 scale) [20, 31]: 70 | Corn plant response rating (0-100) [21, 30]: 100 | Corn plant response rating (0 to 100 scale) [21, 31]: 100 | Pigweed, Palmer plant response rating (0-100) [22, 30]: 80 | Pigweed, Palmer plant response rating (0 to 100 scale) [22, 31]: 20 | Wheat plant response rating (0-100) [23, 30]: 80 | Wheat plant response rating (0 to 100 scale) [23, 31]: 70 | Ryegrass, Italian plant response rating (0-100) [24, 30]: 90 | Ryegrass, Italian plant response rating (0 to 100 scale) [24, 31]: 70 | Soybean plant response rating (0-100) [25, 30]: 70 | Soybean plant response rating (0 to 100 scale) [25, 31]: 60 | Blackgrass plant response rating (0-100) [26, 30]: 90 | Blackgrass plant response rating (0 to 100 scale) [26, 31]: 60 | Barnyardgrass plant response rating (0-100) [27, 30]: 100 | Barnyardgrass plant response rating (0 to 100 scale) [27, 31]: 50 | Horseweed plant response rating (0-100) [28, 30]: 40 | Horseweed plant response rating (0 to 100 scale) [28, 31]: 0
